What was measured:
Format in all cases: in vivo
[1] = system: Puccinia recondita f. sp. tritici; test: Test B: wheat leaf rust, preventive spray on wheat seedlings; settings: 100 = 100% disease control, 0 = no control relative to controls; for pest or weed control at 10 ppm / pest or weed control at 50 ppm: read-out: Test B disease control rating (wheat leaf rust); for pest or weed control at 50 ppm / Test B disease control rating (wheat leaf rust): 50 ppm
In short: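 Wheat seedlings got a run-off spray (ppm, acetone/water 50/50, 250 ppm PEG400) and one day later a spore inoculum. After 24 h at 20° C. in saturated air and 7 days at 20° C., disease was scored as % control relative to controls (100 = full control).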

[2] = system: Blumeria graminis f. sp. tritici; test: Test C: wheat powdery mildew, preventive spray on wheat seedlings; settings: rated after 8 days, 100 = 100% disease control, 0 = no control; for pest or weed control at 10 ppm / pest or weed control at 50 ppm: Blumeria graminis, 192 h, read-out: Test C disease control rating (wheat powdery mildew); for pest or weed control at 50 ppm / Test C disease control rating (wheat powdery mildew): 50 ppm
In short: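 Wheat seedlings got a run-off spray of test suspension (ppm in acetone/water 50/50, 250 ppm PEG400, acetone 3% of volume), then spore-dust inoculation with wheat powdery mildew one day later. After 8 days' growth-chamber incubation at 20° C, disease control scored visually on a 0–100 scale versus untreated controls.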

[3] = system: Alternaria solani; test: Test F: tomato early blight, preventive spray on tomato seedlings; settings: 100 = 100% disease control, 0 = no control; for pest or weed control at 10 ppm / pest or weed control at 50 ppm: Alternaria solani, read-out: Test F disease control rating (tomato early blight); for pest or weed control at 50 ppm / Test F disease control rating (tomato early blight): 50 ppm
In short: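 Preventive test: one day after seedlings were sprayed to run-off with ppm-level suspensions (acetone/water 50/50, 250 ppm PEG400), A. solani spore inoculation followed. Incubation was 48 h at 27° C in saturated air plus 3 days at 20° C; disease control was scored visually versus controls (100 = full control).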

[4] = system: Botrytis cinerea; test: Test E: tomato Botrytis, preventive spray on tomato seedlings; settings: 100 = 100% disease control, 0 = no control; for pest or weed control at 10 ppm / pest or weed control at 50 ppm: Botrytis cinerea, read-out: Test E disease control rating (tomato Botrytis); for pest or weed control at 50 ppm / Test E disease control rating (tomato Botrytis): 50 ppm
In short: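 Preventive test: spore inoculation one day after run-off spraying of compound suspension (3% acetone, acetone/water 50/50, 250 ppm PEG400). Incubation 20 °C saturated humidity for 48 h, followed by 3 days at 24 °C growth chamber; disease control scored visually, 100 = full control.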

[5] = system: Septoria tritici; test: Test A: wheat leaf blotch, preventive spray on wheat seedlings; settings: 100 = 100% disease control, 0 = no control relative to controls; for pest or weed control at 10 ppm / pest or weed control at 50 ppm: Zymoseptoria tritici, read-out: Test A disease control rating (wheat leaf blotch); for pest or weed control at 50 ppm / Test A disease control rating (wheat leaf blotch): 50 ppm
In short: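 Preventive test: seedlings sprayed to run-off one day before Septoria tritici spore inoculation, with ppm doses in acetone/water containing 250 ppm PEG400. After 48 h at 24 °C in saturated air and 17 days at 20 °C, plants were scored 0–100 for disease control versus untreated controls.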

[6] = system: Phakopsora pachyrhizi; test: Test D: Asian soybean rust, preventive spray on soybean seedlings; settings: 100 = 100% disease control, 0 = no control; for pest or weed control at 10 ppm / pest or weed control at 50 ppm: Phakopsora pachyrhizi, read-out: Test D disease control rating (Asian soybean rust); for pest or weed control at 50 ppm / Test D disease control rating (Asian soybean rust): 50 ppm
In short: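 Soybean seedlings sprayed to run-off with compound suspension (ppm, in 50/50 acetone/water with 250 ppm PEG400), inoculated next day with P. pachyrhizi spores, held 24 h saturated at 22°C then 8 days at 22°C. Visual rating 0-100% disease control relative to controls.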

| SMILES | pest or weed control at 10 ppm [1] [%] | pest or weed control at 50 ppm [1] [%] | pest or weed control at 10 ppm [2] [%] | pest or weed control at 50 ppm [2] [%] | pest or weed control at 10 ppm [3] [%] | pest or weed control at 50 ppm [3] [%] | pest or weed control at 10 ppm [4] [%] | pest or weed control at 50 ppm [4] [%] | pest or weed control at 10 ppm [5] [%] | pest or weed control at 50 ppm [5] [%] | pest or weed control at 10 ppm [6] [%] | pest or weed control at 50 ppm [6] [%] | Test B disease control rating (wheat leaf rust) [1] [%] | Test C disease control rating (wheat powdery mildew) [2] [%] | Test F disease control rating (tomato early blight) [3] [%] | Test E disease control rating (tomato Botrytis) [4] [%] | Test A disease control rating (wheat leaf blotch) [5] [%] | Test D disease control rating (Asian soybean rust) [6] [%] |
| --- | --- | --- | --- | --- | --- | --- | --- | --- | --- | --- | --- | --- | --- | --- | --- | --- | --- | --- |
| Cc1nn(C)c(Nc2c(F)cccc2[N+](=O)[O-])c1-c1ccc(F)cc1Cl [Compound 112, 4-(2-chloro-4-fluorophenyl)-N-(2-fluoro-6-nitrophenyl)-1,3-dimethyl-1H-pyrazol-5-amine] | 100 | 100 | 98 | 100 | 98 | 100 | 100 | 100 | 72 | 88 | 52 | 99 |  |  |  |  |  |  |
| Cc1nn(C)c(Nc2c(F)cccc2[N+](=O)[O-])c1-c1ccc(C#N)cc1Cl [Compound 113, 3-chloro-4-[5-[(2-fluoro-6-nitrophenyl)amino]-1,3-dimethyl-1H-pyrazol-4-yl]benzonitrile] |  | 99 |  | 97 |  | 99 |  | 99 |  | 100 |  | 13 |  |  |  |  |  |  |
| Cc1nn(C)c(Nc2c(F)cccc2[N+](=O)[O-])c1-c1c(F)cc(C#N)cc1F [Compound 114] |  |  |  |  |  |  |  |  |  |  |  |  | 98 | 99 | 99 | 100 | 100 | 73 |
| Cc1nn(C)c(Nc2c(F)cc(Cl)cc2[N+](=O)[O-])c1-c1ccc(C#N)cc1Cl [Compound 115] |  |  |  |  |  |  |  |  |  |  |  |  | 100 | 94 | 99 | 99 | 100 | 77 |
| Cc1nn(C)c(Nc2c(Cl)cc(Cl)cc2[N+](=O)[O-])c1-c1ccc(C#N)cc1Cl [Compound 116] |  |  |  |  |  |  |  |  |  |  |  |  | 99 | 56 | 82 | 63 | 99 | 0 |
| Cc1cccc([N+](=O)[O-])c1Nc1c(-c2ccc(F)cc2Cl)c(C)nn1C [Compound 117] |  |  |  |  |  |  |  |  |  |  |  |  | 100 | 95 | 76 | 99 | 99 | 0 |
| Cc1nn(C)c(Nc2c(F)cccc2[N+](=O)[O-])c1-c1ccc(F)cc1F [Compound 118, 4-(2,4-difluorophenyl)-N-(2-fluoro-6-nitrophenyl)-1,3-dimethyl-1H-pyrazol-5-amine] | 80 | 100 | 27 | 98 | 60 | 99 | 99 | 100 | 100 | 100 | 0 | 0 |  |  |  |  |  |  |
| COc1ccc(Nc2c(-c3ccc(F)cc3Cl)c(C)nn2C)c([N+](=O)[O-])c1 [Compound 119] |  |  |  |  |  |  |  |  |  |  |  |  | 100 | 99 | 99 | 100 | 100 | 92 |
| Cc1nn(C)c(Nc2c(F)cc(F)cc2[N+](=O)[O-])c1-c1ccc(C#N)cc1Cl [Compound 120] |  |  |  |  |  |  |  |  |  |  |  |  | 100 | 89 | 99 | 100 | 100 | 44 |
| Cc1nn(C)c(Nc2c(F)cc(Cl)cc2[N+](=O)[O-])c1-c1ccc(F)cc1Cl [Compound 121, N-(4-chloro-2-fluoro-6-nitrophenyl)-4-(2-chloro-4-fluorophenyl)-1,3-dimethyl-1H-pyrazol-5-amine] |  | 100 |  | 100 |  | 100 |  | 100 |  | 100 |  | 99 |  |  |  |  |  |  |
| Cn1nc(C#N)c(-c2ccc(F)cc2Cl)c1Nc1c(F)cccc1[N+](=O)[O-] [Compound 122] |  |  |  |  |  |  |  |  |  |  |  |  | 100 | 94 | 99 | 100 | 100 | 0 |
| Cc1nn(C)c(Nc2c(Cl)cccc2[N+](=O)[O-])c1-c1ccc(C#N)cc1Cl [Compound 123] |  |  |  |  |  |  |  |  |  |  |  |  | 97 | 81 | 66 | 100 | 100 | 0 |
| COc1ccc(Nc2c(-c3ccc(C#N)cc3Cl)c(C)nn2C)c([N+](=O)[O-])c1 [Compound 124] |  |  |  |  |  |  |  |  |  |  |  |  | 100 | 99 | 99 | 100 | 100 | 25 |
| Cc1nn(C)c(Nc2c(Br)cccc2[N+](=O)[O-])c1-c1ccc(C#N)cc1Cl [Compound 125] |  |  |  |  |  |  |  |  |  |  |  |  | 96 | 0 | 9 | 99 | 100 | 0 |
| Cc1nn(C)c(Nc2ccccc2[N+](=O)[O-])c1-c1ccc(F)cc1Cl [Compound 126] |  |  |  |  |  |  |  |  |  |  |  |  | 85 | 96 | 68 | 100 | 98 | 0 |
| Cc1cc(F)c(Nc2c(-c3ccc(C#N)cc3Cl)c(C)nn2C)c([N+](=O)[O-])c1 [Compound 127, 3-chloro-4-[5-[(2-fluoro-4-methyl-6-nitrophenyl)amino]-1,3-dimethyl-1H-pyrazol-4-yl]benzonitrile] |  | 99 |  | 92 |  | 100 |  | 100 |  | 100 |  | 96 |  |  |  |  |  |  |
| CCc1nn(C)c(Nc2c(Cl)cc(Br)cc2[N+](=O)[O-])c1-c1ccc(F)cc1Cl [Compound 128] |  |  |  |  |  |  |  |  |  |  |  |  | 98 | 96 | 33 | 99 | 100 | 31 |

Source: patent publication US12398107B2, “Fungicidal nitroanilino substituted pyrazoles” (FMC Corporation, priority 2018, dated 2025)
